Where a SMILES comes first, the peptide text is derived from it. The star is where a group is joined. Myristoyl = CCCCCCCCCCCCCC(=O)*
Tests used:
induced MCF7 cells = test: FACS CSC inhibition in induced MCF7 cells; assay type: cell-based, human; details: induced MCF7 cells (PMA/TGF-β), 50 μM peptide, 48 hours
Protocol: (§1) P1 Analogues were synthesized in accordance with the procedure of Example 5. 4×10^4 MDA-MB-231 cells or 1×10^4 induced or non-induced MCF7 cells were seeded in a 12 well plate with 1 mL complete media overnight. Induced MCF7 cells were prepared by stimulating cells with PMA/TGF-β and incubating for 12 hours. Cells were treated with 50 μM test peptide (dissolved in water) for 48 hours. Cells were then washed twice with 1 mL PBS and harvested by trypsinisation. Non-adherent cells were removed during the washing steps. Adherent cells were collected, and were subsequently stained with anti-human CD44, CD24 and Hoechst 33342 antibodies on ice for 30 mins. FACS was performed on BD FACS LSRII to measure the percentage of CD44^hiCD24^lo CSCs by dividing CD44^hiCD24^lo events by total live cell counts (Hoechst negative population) (as described in Fillmore and Kuperwasser (2007) Breast Cancer Res, 9: 303). The percentage of viable cells was calculated by dividing total live cell events by total single cells as described previously (Siemann and Keng (1986), Cancer Res, 46: 3556-3559).

MDA-MB-231 cells = assay type: cell-based, human; details: for killing of total MDA-MB-231 cells: not only the CSCs
Text: (§2) Non-adherent cells were removed during the washing steps.

MCF7 cells = system: MCF7 cells
Protocol: as §1

[1] = system: CD44^hiCD24^lo CSCs in MDA-MB-231 cells; test: FACS analysis of CD44^hiCD24^lo cancer stem cells in MDA-MB-231 cells treated with P1 analogues; assay type: cell-based, human; details: 50 μM peptide, 48 hours; for CD44^hiCD24^lo CSCs (%) / COI, Live Single CD44^hiCD24^lo CSCs (Cell Count): n = 1; for Average Inhibition of CSCs (%) / CD44^hiCD24^lo CSCs (%) Repeat 1 / CD44^hiCD24^lo CSCs (%) Repeat 2 / CD44^hiCD24^lo CSCs (%) Repeat 3: n = 3
Protocol: Analogues of P1 (Table 6) were designed and synthesized in accordance with the procedure of Example 5. The ability of these analogues to inhibit cancer stem cells was determined using FACS analysis on MDA-MB-231 cells, which constitutively contain approximately 90% CD44^hiCD24^lo cancer stem cells, treated with the peptides.
as §2

[2] = system: CD44^hiCD24^lo CSCs in MCF7 cells; test: FACS analysis of CD44^hiCD24^lo CSCs in MCF7 cells; assay type: cell-based, human; details: 50 μM peptide, 48 hours
Protocol: as §1

[3] = MCF7 cells, 50 μM peptide, 48 hours
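Throughout, for COI, Live Single Cells (Cell Count): live means Hoechst-negative events among single cells.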

Row | SMILES | CSC inhibition (%) (induced MCF7 cells) | COI (Cell Count) (MDA-MB-231 cells; 50 μM peptide, 48 hours, n = 1) | COI, Live Single Cells (Cell Count) (MDA-MB-231 cells; 50 μM peptide, 48 hours, n = 1) | COI, Single (Cell Count) (MDA-MB-231 cells; 50 μM peptide, 48 hours, n = 1) | Total Cell Count (MDA-MB-231 cells; 50 μM peptide, 48 hours, n = 1) | killing of total MDA-MB-231 cells (MDA-MB-231 cells) | COI Count (MCF7 cells; [3]) | COI/Single Cell Count (MCF7 cells; [3]) | COI/Single Cells/Live Count (MCF7 cells; [3]) | Total Count (MCF7 cells; [3]) | Inhibition of CSCs (%) Repeat 1 [1] [%] | Inhibition of CSCs (%) Repeat 2 [1] [%] | Inhibition of CSCs (%) Repeat 3 [1] [%] | CD44^hiCD24^lo CSCs (%) [1] [%] | COI, Live Single CD44^hiCD24^lo CSCs (Cell Count) [1] | Average Inhibition of CSCs (%) [1] [%] | CD44^hiCD24^lo CSCs (%) Repeat 1 [1] [%] | CD44^hiCD24^lo CSCs (%) Repeat 2 [1] [%] | CD44^hiCD24^lo CSCs (%) Repeat 3 [1] [%] | CD44^hiCD24^lo CSC % [2] [%] | other results
1 | CCCCCCCCCCCCCC(=O)N[C@@H](CC(C)C)C(=O)N[C@H](C(=O)N[C@@H](Cc1ccccc1)C(=O)N[C@H](C(=O)N[C@@H](Cc1ccccc1)C(=O)N[C@@H](CCCNC(=N)N)C(=O)N[C@@H](CC(C)C)C(=O)N[C@@H](CC(C)C)C(=O)N[C@@H](CCCCN)C(=O)NCC(=O)N[C@@H](CCCNC(=N)N)C(=O)N[C@@H](CCSC)C(=O)N[C@@H](CCSC)C(=O)N[C@@H](CC(=O)O)C(=O)N[C@H](C(=O)N[C@@H](CCCCN)C(=O)N[C@@H](CCCCN)C(N)=O)C(C)C)[C@@H](C)CC)[C@@H](C)O [Peptide 2853825, Myristoyl-LTFIFRLLKGRMMDVKK-NH2] (Myristoyl-LTFIFRLLKGRMMDVKK-NH2) | Cytotoxic | 18 | 0 | 15 | 1583 | killed the majority of the total MDA-MB-231 cells | 72 | 35 | 0 | 10000 | 100.00 | 100.00 | 100.00 | 0.00 | 0 | 100.00 | 0.00 | 0.00 | 0.00 | 0.00 | Viable Cells (%) (MDA-MB-231 cells; 50 μM peptide, 48 hours, n = 1): 0.00%; cytotoxicity to MCF7 cells (MCF7 cells): cytotoxic; % Viable Cells (MCF7 cells; [3]): 0.00%; COI/Single Cells/Live/CD44^hiCD24^lo CSCs Count [2]: 0
2 | CCCCCCCCCCCCCC(=O)N[C@@H](CC(C)C)C(=O)N[C@H](C(=O)N[C@@H](Cc1ccccc1)C(=O)N[C@H](C(=O)N[C@@H](Cc1ccccc1)C(=O)N[C@@H](CCCNC(=N)N)C(=O)N[C@@H](CC(C)C)C(=O)N[C@@H](CCCNC(=N)N)C(=O)N[C@@H](CCCCN)C(=O)NCC(=O)N[C@@H](CCCNC(=N)N)C(=O)N[C@@H](CCSC)C(=O)N[C@@H](CCSC)C(=O)N[C@@H](CC(=O)O)C(=O)N[C@@H](CCCCN)C(=O)N[C@@H](CCCCN)C(=O)N[C@@H](CCCCN)C(N)=O)[C@@H](C)CC)[C@@H](C)O [Peptide 2853839, Myristoyl-LTFIFRLRKGRMMDKKK-NH2] (Myristoyl-LTFIFRLRKGRMMDKKK-NH2) | 83.87% | 12 | 2 | 10 | 619 | killed the majority of the total MDA-MB-231 cells | 3128 | 2294 | 2200 | 10000 | 100.00 | 100.00 | 100.00 | 0.00 | 0 | 100.00 | 0.00 | 0.00 | 0.00 | 1.14 | COI/Single Cells/Live/CD44^hiCD24^lo CSCs Count [2]: 25

From patent US20200339691A1, “PROTEINACEOUS MOLECULES AND USES THEREFOR” (priority 2018, published 2020)
